Melting point data for 3 compounds are collected here from patent USRE40558E1, “Therapeutic uses of di-aryl acid derivatives” (Sanofi-Aventis Deutschland GmbH, priority 1999, dated 2008).

By melting point is commonly meant the temperature of the solid-liquid transition.

As to `Cc1cc(OCc2ccccc2)cc(OCCCc2ccccc2)c1C(=O)O` [Example 15, 4-Benzyloxy-2-methyl-6-(3-phenyl-propoxy)-benzoic Acid], the melting point lay in the range of 109 to 111 °C. In turn, `Cc1cc(OCc2ccccc2)cc(OCC2CCCCC2)c1C(=O)O` [Example 15a, 4-Benzyloxy-2-cyclohexylmethoxy-6-methyl-benzoic Acid] had a melting point of 127 to 128 °C. On to `Cc1cc(OCc2ccccc2)cc(OCCCC(C)C)c1C(=O)O` [Example 15b, 4-Benzyloxy-2-methyl-6-(4-methyl-pentyloxy)-benzoic Acid], for which the melting point was in the range of 83 to 85 °C.
